One experiment addresses ASH1L (Homo sapiens, UniProt Q9NR48). The conditions noted are these: inhibitor; read-out: Control IC50 (µM), Chaetocin.
For experiment [1], the target named is T1, NSD2 SET domain (Homo sapiens, UniProt O96028).
T1 construct: SET domain, residues 934-1241, N-terminal His tag, E. coli
T1 sequence (O96028 934-1241): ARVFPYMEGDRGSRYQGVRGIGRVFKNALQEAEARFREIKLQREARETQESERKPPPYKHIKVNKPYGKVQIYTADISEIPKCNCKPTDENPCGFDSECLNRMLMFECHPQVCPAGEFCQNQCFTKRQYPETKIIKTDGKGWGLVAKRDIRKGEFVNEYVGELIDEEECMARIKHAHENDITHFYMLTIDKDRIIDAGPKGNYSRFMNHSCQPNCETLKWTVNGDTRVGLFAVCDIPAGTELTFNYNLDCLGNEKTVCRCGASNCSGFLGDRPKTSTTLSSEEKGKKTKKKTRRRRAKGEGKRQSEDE
Description: biochemical. Set-up: Surface plasmon resonance binding to NSD2 SET domain. On the procedure: To support an on-target mechanism of action for the five inhibitors, surface plasmon resonance (SPR) was used to determine whether each inhibitor interacts with the catalytic SET domain of NSD2. […] Chaetocin bound the SET domain with an apparent dissociation constant of 20 nM. Additionally, the data indicated super-stoichiometric binding, which might be due to a binding ratio higher than 1:1 that is consistent with chaetocin’s two disulfide moieties forming adducts with the NSD2 protein, or compound aggregation (data not shown) ([56]).

Another experiment has as its target T2, NSD3 (Homo sapiens, UniProt Q9BZ95).
T2 sequence (Q9BZ95 1021-1322): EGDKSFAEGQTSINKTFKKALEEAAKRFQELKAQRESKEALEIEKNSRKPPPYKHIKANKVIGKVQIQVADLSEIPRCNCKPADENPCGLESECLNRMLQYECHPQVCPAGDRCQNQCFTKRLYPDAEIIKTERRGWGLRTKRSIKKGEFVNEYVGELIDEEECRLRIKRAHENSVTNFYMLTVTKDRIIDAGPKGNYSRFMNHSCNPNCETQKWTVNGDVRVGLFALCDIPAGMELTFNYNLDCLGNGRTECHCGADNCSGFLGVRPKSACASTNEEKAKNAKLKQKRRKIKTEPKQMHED
Description: biochemical.

Another experiment has as its target T3, GLP (Homo sapiens, UniProt Q9H9B1).
T3 construct: gene EHMT1
T3 sequence (Q9H9B1 1-1298): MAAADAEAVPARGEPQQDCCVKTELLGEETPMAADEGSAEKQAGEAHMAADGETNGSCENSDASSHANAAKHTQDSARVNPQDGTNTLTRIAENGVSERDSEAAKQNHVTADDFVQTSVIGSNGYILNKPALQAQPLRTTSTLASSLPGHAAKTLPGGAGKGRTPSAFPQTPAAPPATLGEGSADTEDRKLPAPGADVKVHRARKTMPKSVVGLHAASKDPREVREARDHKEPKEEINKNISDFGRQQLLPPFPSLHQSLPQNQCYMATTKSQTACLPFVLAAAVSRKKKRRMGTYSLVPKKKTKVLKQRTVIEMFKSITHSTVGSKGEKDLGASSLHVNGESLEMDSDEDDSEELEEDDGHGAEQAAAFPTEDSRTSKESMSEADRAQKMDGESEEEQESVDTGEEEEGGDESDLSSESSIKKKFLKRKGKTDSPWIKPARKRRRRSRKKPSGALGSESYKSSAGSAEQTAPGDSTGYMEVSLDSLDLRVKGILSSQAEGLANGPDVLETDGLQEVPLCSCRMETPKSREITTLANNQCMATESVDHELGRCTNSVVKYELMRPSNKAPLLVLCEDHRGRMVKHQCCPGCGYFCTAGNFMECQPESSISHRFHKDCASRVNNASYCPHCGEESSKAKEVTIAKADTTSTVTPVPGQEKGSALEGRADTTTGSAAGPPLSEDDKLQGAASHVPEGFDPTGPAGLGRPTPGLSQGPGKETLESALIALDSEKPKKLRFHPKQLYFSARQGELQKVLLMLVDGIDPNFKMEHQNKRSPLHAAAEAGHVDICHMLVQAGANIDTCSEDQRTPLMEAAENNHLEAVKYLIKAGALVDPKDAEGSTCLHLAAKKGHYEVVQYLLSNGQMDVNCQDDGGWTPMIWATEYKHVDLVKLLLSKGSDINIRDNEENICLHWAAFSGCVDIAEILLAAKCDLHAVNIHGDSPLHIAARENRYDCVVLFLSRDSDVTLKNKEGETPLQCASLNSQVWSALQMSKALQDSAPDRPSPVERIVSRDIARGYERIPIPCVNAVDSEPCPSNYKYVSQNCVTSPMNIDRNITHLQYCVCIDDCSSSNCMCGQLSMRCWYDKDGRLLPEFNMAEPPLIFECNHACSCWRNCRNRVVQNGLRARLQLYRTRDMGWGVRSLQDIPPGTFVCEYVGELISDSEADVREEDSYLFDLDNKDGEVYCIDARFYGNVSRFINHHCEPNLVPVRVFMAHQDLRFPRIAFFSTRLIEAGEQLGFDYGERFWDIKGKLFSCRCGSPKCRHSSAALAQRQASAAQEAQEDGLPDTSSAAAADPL
As to the kind of experiment: biochemical.

Another experiment concerns the target PRMT7 (Homo sapiens, UniProt Q9NVM4). Description: biochemical.
The target of a further experiment is T4, SET8 (Homo sapiens, UniProt Q9NQR1).
T4 construct: gene KMT5A
T4 sequence (Q9NQR1 1-393): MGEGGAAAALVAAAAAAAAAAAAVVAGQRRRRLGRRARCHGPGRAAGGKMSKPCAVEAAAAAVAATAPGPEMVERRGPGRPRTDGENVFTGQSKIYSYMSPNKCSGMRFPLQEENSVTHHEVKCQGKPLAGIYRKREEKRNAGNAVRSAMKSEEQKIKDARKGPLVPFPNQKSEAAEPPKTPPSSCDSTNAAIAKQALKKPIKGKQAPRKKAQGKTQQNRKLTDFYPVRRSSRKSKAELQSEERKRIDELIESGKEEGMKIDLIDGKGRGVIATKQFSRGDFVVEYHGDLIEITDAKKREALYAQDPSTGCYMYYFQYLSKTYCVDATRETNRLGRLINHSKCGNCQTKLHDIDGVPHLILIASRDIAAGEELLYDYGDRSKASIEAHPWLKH
As to the kind of experiment: biochemical.

A further experiment deals with T5, NSD1 (Homo sapiens, UniProt Q96L73).
T5 construct: residues 1538-2696, N-terminal His tag, insect cell/baculovirus
T5 sequence (Q96L73 1538-2696): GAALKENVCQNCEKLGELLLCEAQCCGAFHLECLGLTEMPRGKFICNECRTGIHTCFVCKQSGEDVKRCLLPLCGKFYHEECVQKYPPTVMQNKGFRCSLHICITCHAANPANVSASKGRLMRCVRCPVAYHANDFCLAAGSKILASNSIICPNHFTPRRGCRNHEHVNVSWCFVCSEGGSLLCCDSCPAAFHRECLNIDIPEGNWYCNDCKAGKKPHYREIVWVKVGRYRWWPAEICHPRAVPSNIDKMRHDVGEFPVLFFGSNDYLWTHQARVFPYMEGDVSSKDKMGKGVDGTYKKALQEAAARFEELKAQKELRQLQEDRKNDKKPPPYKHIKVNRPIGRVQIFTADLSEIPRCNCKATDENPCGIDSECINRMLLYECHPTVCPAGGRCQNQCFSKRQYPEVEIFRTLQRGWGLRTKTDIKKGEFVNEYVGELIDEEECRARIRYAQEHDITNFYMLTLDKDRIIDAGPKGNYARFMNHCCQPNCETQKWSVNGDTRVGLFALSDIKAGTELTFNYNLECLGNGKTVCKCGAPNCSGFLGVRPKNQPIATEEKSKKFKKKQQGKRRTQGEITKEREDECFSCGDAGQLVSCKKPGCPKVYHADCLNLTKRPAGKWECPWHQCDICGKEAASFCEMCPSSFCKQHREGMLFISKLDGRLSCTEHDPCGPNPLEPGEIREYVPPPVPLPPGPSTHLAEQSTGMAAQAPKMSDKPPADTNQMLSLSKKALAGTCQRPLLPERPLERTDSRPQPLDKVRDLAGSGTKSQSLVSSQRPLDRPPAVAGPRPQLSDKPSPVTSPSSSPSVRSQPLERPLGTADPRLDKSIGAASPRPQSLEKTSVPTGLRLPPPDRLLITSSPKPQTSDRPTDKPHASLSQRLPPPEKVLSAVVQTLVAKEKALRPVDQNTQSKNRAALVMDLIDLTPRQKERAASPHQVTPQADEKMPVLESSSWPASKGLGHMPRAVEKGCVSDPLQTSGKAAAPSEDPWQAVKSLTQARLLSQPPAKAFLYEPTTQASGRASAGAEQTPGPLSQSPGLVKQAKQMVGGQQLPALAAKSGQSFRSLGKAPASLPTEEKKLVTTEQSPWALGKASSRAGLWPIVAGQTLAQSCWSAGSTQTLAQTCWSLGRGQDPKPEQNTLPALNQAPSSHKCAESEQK
Description: HotSpot [3H]SAM filter-binding methyltransferase assay. It is filed as biochemical.

A further experiment deals with T6, DNMT3b (Homo sapiens, UniProt Q9UBC3).
T6 construct: residues 2-853, N-terminal GST fusion, insect cell/baculovirus
The description is as above. It is filed as biochemical.

Experiment [2] concerns the target T1, NSD2 SET domain. As to the kind of experiment: SPR Biacore 8K, single-cycle kinetics, […] model. The class given is binding. A general note: In SPR one partner is held on a chip, and binding of the other changes the refractive index at the surface.
[3] abbreviates: apparent, super-stoichiometric binding, binder.

Like-named read-outs stand apart in the source and are kept apart here.

PRMT7, sequence (Q9NVM4 whole entry): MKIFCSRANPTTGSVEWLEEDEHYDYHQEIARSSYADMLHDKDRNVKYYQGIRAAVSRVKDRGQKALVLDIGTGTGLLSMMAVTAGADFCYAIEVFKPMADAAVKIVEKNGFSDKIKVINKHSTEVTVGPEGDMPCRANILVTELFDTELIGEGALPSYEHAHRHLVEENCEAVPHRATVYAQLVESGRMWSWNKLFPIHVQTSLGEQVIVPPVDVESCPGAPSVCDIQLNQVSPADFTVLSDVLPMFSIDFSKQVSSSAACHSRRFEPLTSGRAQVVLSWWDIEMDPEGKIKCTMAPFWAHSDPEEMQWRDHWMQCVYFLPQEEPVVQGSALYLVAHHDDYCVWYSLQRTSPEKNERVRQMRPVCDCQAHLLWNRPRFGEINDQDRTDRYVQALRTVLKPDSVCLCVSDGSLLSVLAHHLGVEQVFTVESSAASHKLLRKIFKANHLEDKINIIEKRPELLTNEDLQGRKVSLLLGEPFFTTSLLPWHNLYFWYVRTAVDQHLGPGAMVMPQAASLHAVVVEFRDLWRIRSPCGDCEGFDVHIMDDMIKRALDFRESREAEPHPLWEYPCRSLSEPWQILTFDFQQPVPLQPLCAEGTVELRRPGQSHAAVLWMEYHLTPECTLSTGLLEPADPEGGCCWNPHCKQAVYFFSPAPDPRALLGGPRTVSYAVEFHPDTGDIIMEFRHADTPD

What is called IC50 is the concentration at which inhibition is half-maximal. One may read the koff as the first-order rate constant of dissociation. As a reminder, the kon is the second-order rate constant of association. Consider `CN1C(=O)[C@@]23C[C@]4([C@]56C[C@@]78SS[C@@](CO)(C(=O)N7[C@H]5Nc5ccccc56)N(C)C8=O)c5ccccc5N[C@@H]4N2C(=O)[C@]1(CO)SS3` [Chaetocin], for which the concentration for half-maximal inhibition (IC50) at ASH1L was 0.1 µM; against NSD3, 90 nM; against GLP, 77000 nM; against PRMT7, 156000 nM. For the same compound, at NSD2 SET domain [1] (apparent, super-stoichiometric binding), the Kd amounted to 20 nM. In addition, the dissociation rate constant (koff) at NSD2 SET domain [1] (setting [3]) turned out to be 4.59e-05 s⁻¹. Also, on NSD2 SET domain [1] (setting [3]), the on-rate constant (kon) was 2210 M⁻¹ s⁻¹.

Take `Cc1ccc(NC2=CC(=O)c3sc(C)nc3C2=O)cc1` [Ryuvidine]: inhibition at SET8 was half-maximal at 950 nM (IC50).

With `Nc1ncnc2c1ncn2[C@@H]1O[C@H](CSCC[C@H](N)C(=O)O)[C@@H](O)[C@H]1O` [SAH, reference compound], the IC50 was 9700 nM on NSD1 and 65 nM on DNMT3b.

With `C[S+](CC[C@H](N)C(=O)O)C[C@H]1O[C@@H](n2cnc3c(N)ncnc32)[C@H](O)[C@@H]1O` (stereo partly shown) [SAM], the off-rate constant (koff) at NSD2 SET domain [1] (read-out: koff) was found to be 0.017 s⁻¹. For the same compound, the on-rate (kon) at NSD2 SET domain [1] (read-out: kon) came out at 4060 M⁻¹ s⁻¹. Also, the Kd on NSD2 SET domain [2] is 4200 nM.
